Several values for one entry are separate records, joined by “and”; a condition that tells them apart may be missing. Equal values may be shown once.
Assays:
[1] = xn = mol fraction of the nth substance listed; conditions: 101 kPa

CC(O)C(=O)[O-].CN(C)C(=N)[NH+](C)C
101 kPa
Conditions	viscosity [mPa·s]
303.15 K	13700
308.15 K	7300
313.15 K	3960
318.15 K	2260
323.15 K	1370

CCCC[N+]1(C)CCCC1.O=S(=O)([N-]S(=O)(=O)C(F)(F)F)C(F)(F)F
viscosity
Conditions	293.15 K	295.2 K	298.15 K	303.15 K	308.15 K	313.15 K	318.15 K
100 kPa	97.99 mPa·s and 90.17 mPa·s	–	74.9 mPa·s and 70.12 mPa·s	61.58 mPa·s and 56.19 mPa·s	50.81 mPa·s and 45.8 mPa·s	37.99 mPa·s	34.58 mPa·s
101 kPa	86.03 mPa·s and 86.05 mPa·s	–	68.14 mPa·s and 68.16 mPa·s and 70.5 mPa·s	54.03 mPa·s and 54.05 mPa·s	44.37 mPa·s and 44.38 mPa·s	42 mPa·s and 35.75 mPa·s and 35.76 mPa·s	29.71 mPa·s and 29.72 mPa·s
101.3 kPa	–	80 mPa·s	–	–	–	–	–

Cc1cc(C)cc(C)c1
Conditions	viscosity
293.15 K, 101 kPa	0.692 mPa·s and 0.721 mPa·s
293.15 K, 101.33 kPa	0.692 mPa·s
293.15 K, 102 kPa	0.699 mPa·s
295.01 K, 101.33 kPa	0.6861 mPa·s
298.15 K, 101 kPa	0.6025 mPa·s and 0.6518 mPa·s
298.15 K, 101.3 kPa	0.656 mPa·s and 0.671 mPa·s
298.15 K, 101.33 kPa	0.6 mPa·s and 0.658 mPa·s
298.38 K, 100 kPa	0.6595 mPa·s
298.38 K, 101.33 kPa	0.6595 mPa·s
302.82 K, 101.33 kPa	0.6227 mPa·s
303 K, 101 kPa	0.6123 mPa·s and 0.6124 mPa·s
303.15 K, 101 kPa	0.633 mPa·s and 0.612 mPa·s
303.15 K, 101.3 kPa	0.616 mPa·s and 0.624 mPa·s
303.15 K, 101.33 kPa	0.564 mPa·s
303.15 K, 102 kPa	0.606 mPa·s
307.35 K, 101.33 kPa	0.584 mPa·s
307.4 K, 101.33 kPa	0.309 mPa·s
307.78 K, 101.33 kPa	0.5879 mPa·s
308.15 K, 101.3 kPa	0.581 mPa·s and 0.589 mPa·s
308.15 K, 101.33 kPa	0.5482 mPa·s and 0.585 mPa·s
308.5 K, 101 kPa	0.597 mPa·s
312.69 K, 100 kPa	0.5561 mPa·s
312.69 K, 101.33 kPa	0.5561 mPa·s
313 K, 101 kPa	0.5482 mPa·s and 0.5481 mPa·s
313.15 K, 102 kPa	0.534 mPa·s
317.53 K, 101.33 kPa	0.5269 mPa·s
318.15 K, 101 kPa	0.3678 mPa·s and 0.52 mPa·s
322.26 K, 101.33 kPa	0.5017 mPa·s
323 K, 101 kPa	0.491 mPa·s and 0.4898 mPa·s
323.15 K, 101 kPa	0.495 mPa·s
323.15 K, 102 kPa	0.476 mPa·s

OCCC1CCCCN1 (stereo not drawn)
Conditions	viscosity [mPa·s]
313.15 K, 101.3 kPa	77.17

CCOS(=O)(=O)[O-].CC[n+]1ccn(C)c1
viscosity
Conditions	298.15 K	303.15 K	308.15 K	313.15 K	318.15 K	323.15 K
100 kPa	96.87 mPa·s and 95.9 mPa·s	76.51 mPa·s and 75.7 mPa·s	61.6 mPa·s	61.6 mPa·s	50.5 mPa·s	35.03 mPa·s
101 kPa	95.9 mPa·s and 95.5 mPa·s	75.63 mPa·s and 75.4 mPa·s	–	49.45 mPa·s	–	34.24 mPa·s

O=C1CCCN1
101.33 kPa
Conditions	viscosity [mPa·s]
304.15 K	10.5
308.15 K	9.102
313.15 K	7.687
318.15 K	6.593
323.15 K	5.666

CCC[NH3+].O=[N+]([O-])[O-]
Conditions	viscosity [mPa·s]
298 K, 101 kPa	72.61

CC(C)CN
Conditions	viscosity [mPa·s]
298.15 K, 101 kPa	0.563

CC[n+]1ccccc1.O=S(=O)([O-])C(F)(F)F
101 kPa
Conditions	viscosity [mPa·s]
293.15 K	75.2
298.15 K	60.58
303.15 K	48.77
313.15 K	33.78
323.15 K	24.47

CCCCCCCC/C=C\CCCCCCCC(=O)O
101 kPa
Conditions	viscosity [mPa·s]
298.15 K	35.41
323.15 K	14.38

CCC(C)CC
101.33 kPa
Conditions	viscosity [mPa·s]
298 K	0.288
298.15 K	0.2909

OCCCCO
viscosity
Conditions	293.15 K	298.15 K	303.15 K	308.15 K	313.15 K	318.15 K	323.15 K
101 kPa	96.5 mPa·s and 96.8 mPa·s	72.8 mPa·s and 72.1 mPa·s and 75.6 mPa·s	54.3 mPa·s and 57.2 mPa·s and 50.53 mPa·s	–	32.8 mPa·s and 35.4 mPa·s and 37.03 mPa·s	–	–
101.3 kPa	92.14 mPa·s	71.91 mPa·s	–	45.04 mPa·s	36.26 mPa·s	29.38 mPa·s	24.18 mPa·s
101.33 kPa	91.27 mPa·s	72.83 mPa·s	56.05 mPa·s	45.06 mPa·s	36.02 mPa·s	30.61 mPa·s	–

CC(C)Cc1ccccc1
viscosity [mPa·s]
Conditions	293.15 K	303.15 K	313.15 K	323.15 K
101 kPa	–	0.899	0.771	–
102 kPa	1.02	0.883	0.769	0.68

Cc1cc(C)cc(C)c1 + CCCCCCCCCCO
viscosity [mPa·s], [1]
Conditions	298.15 K	308.15 K
x1 = 0.0752	9.427	6.401
x1 = 0.1354	7.818	5.334
x1 = 0.2083	6.204	4.256
x1 = 0.265	5.179	3.572
x1 = 0.3292	4.194	2.936
x1 = 0.3894	3.456	2.445
x1 = 0.4633	2.728	1.942
x1 = 0.5303	2.202	1.595
x1 = 0.6033	1.754	1.279
x1 = 0.6643	1.458	1.084
x1 = 0.7341	1.195	0.901
x1 = 0.7998	1.002	0.768
x1 = 0.8724	0.838	0.669
x1 = 0.9442	0.728	0.606

O=S=O + Cc1ccccc1
[1], 298.15 K
Conditions	viscosity [mPa·s]
x1 = 0.0185	0.5449
x1 = 0.0455	0.5339
x1 = 0.104	0.5121
x1 = 0.1897	0.4881

[Cl-].[Cl-].[Cl-].[Cl-].[Sn+4] + c1ccccc1
viscosity, [1]
Conditions	293.15 K	313.15 K
x2 = 0.5	–	0.5435 mPa·s
x2 = 0.7	0.6136 mPa·s	0.485 mPa·s and 0.4846 mPa·s

From the CheMixHub viscosity set
